Results published in patent US20070104716A1, “Methods for controlling pathological angiogenesis by inhibition of a6b4 integrin” (SLOAN-KETTERING INSTITUTE FOR CANCER RESEARCH, priority 2003, published 2007).

Tested on: HUVECs expressing wild-type α6β4
Test: in vitro wound closure (migration) assay on laminin-5 in response to bFGF
Type: cell-based, Human
Conditions: plated on laminin-5, bFGF, wound closure at 8 hours (FIG. 4A)
Description: When indicated, migrating cells were treated with the NF-kB inhibitor BAY 11-7082 ([…]) or the MAPK inhibitor PD98059 (50 μM).
To examine the effect of α6β4 signaling on endothelial cell migration, parental HUVECS and their derivatives expressing either wild-type or mutant α6β4 were plated on laminin-5 at confluency and subjected to in vitro wound assay. Expression of wild-type α6β4 increased endothelial cell migration in response to bFGF.
To examine the role of ERK and NF-OB signaling in endothelial cell migration, HUVECs expressing wild-type α6β4 were subjected to in vitro wound closure assay in the presence of the MEK inhibitor PD98059 or the NF-kB inhibitor BAYI 1-072.
HUVECs were electroporated with equimolar amounts of plasmids encoding α6 and either β4 or β4-1355T (Dans et al., 2001), deprived of growth factors for 18 hours, and then panned on plates coated with the anti-β4 mAb 3E1. Bound cells were washed with PBS and recovered by trypsin-EDTA treatment. For in vitro wound assays, equal numbers of cells expressing wild-type β4 or mutant β4-1355T were plated on dishes coated with laminin-5, grown until confluent, and starved. […] Wound closure was monitored by digital photography. […] HUVECS Invasion was quantified 72 hours later by counting the average number of capillary-like structures per microcarrier bead.

| SMILES | migration of α6β4-expressing HUVECs (wound closure) (BAY 11-7082 12.5PM) | migration of α6β4-expressing HUVECs (wound closure) (PD98059 50 μM) |
| --- | --- | --- |
| Cc1ccc(S(=O)(=O)/C=C/C#N)cc1 [BAYI 1-072] | reduced the migration of α6β4-expressing HUVECs to levels similar to those displayed by control HUVECs or HUVECs expressing mutant α6β4 |  |
| COc1cccc(-c2cc(=O)c3ccccc3o2)c1N [PD98059] |  | reduced the migration of α6β4-expressing HUVECs to levels similar to those displayed by control HUVECs or HUVECs expressing mutant α6β4 |
